Assays:
[1] = test system: SARS-CoV-2; experiment: Antiviral activity against SARS-COV-2 infected in African green monkey Vero cells assessed as reduction in virus induced cytopathic effect preincubated with cells for 15 mins followed by viral infection and measured after 2 days by RT-PCR analysis; format: functional, organism-based; conditions: Severe acute respiratory syndrome coronavirus 2, Vero
[2] = Cytotoxicity against African green monkey Vero cells by Celltiter blue assay; format: toxicity, cell-based; conditions: chlorocebus sabaeus
[3] = Selectivity index, ratio of CC50 for African green monkey Vero cells to EC50 for SARS-COV-2; format: toxicity; conditions: read-out: Ratio CC50/EC50
[4] = test system: Zika virus; experiment: Antiviral activity against Zika virus GZ01/2016 infected in African green monkey Vero cells assessed as reduction in virus induced cytopathic effect preincubated with cells for 12 hrs followed by viral infection and measured after 48 hrs by qRT-PCR analysis; format: functional, organism-based; conditions: GZ01/2016, Vero
[5] = Antiproliferative against African green monkey Vero cells incubated for 40 hrs by Celltiter assay; format: toxicity, cell-based; conditions: chlorocebus sabaeus
[6] = Selectivity index, ratio of CC50 for African green monkey Vero cells to EC50 for Zika virus GZ01/2016 infected in African green monkey Vero cells; format: toxicity; conditions: read-out: Ratio CC50/EC50
[7] = test system: dengue virus type 2; experiment: Antiviral activity against Dengue virus 2 infected in African green monkey Vero cells assessed as reduction in virus induced cytopathic effect preincubated with cells for 12 hrs followed by viral infection and measured after 48 hrs by qRT-PCR analysis; format: functional, organism-based
[8] = Selectivity index, ratio of CC50 for African green monkey Vero cells to EC50 for Dengue virus 2 infected in African green monkey Vero cells; format: toxicity; conditions: read-out: Ratio CC50/EC50
[9] = Antiproliferative against African green monkey Vero cells; format: toxicity, cell-based; conditions: chlorocebus sabaeus
[10] = test system: Zaire ebolavirus; experiment: Antiviral activity against Zaire ebolavirus infected in African green monkey Vero cells assessed as reduction in virus induced cytopathic effect preincubated with cells for 1 hr followed by viral infection and measured after 48 hrs; format: functional, organism-based
[11] = Cytotoxicity against African green monkey Vero cells by MTT assay; format: toxicity, cell-based; conditions: chlorocebus sabaeus
[12] = Selectivity index, ratio of CC50 for African green monkey Vero cells to EC50 for Zaire ebolavirus infected in African green monkey Vero cells; format: toxicity; conditions: read-out: Ratio CC50/EC50
[13] = test system: Influenza A virus; experiment: Antiviral activity against Influenza A virus A/California/7/2009(H1N1) strain infected in A549 cells assessed as reduction in viral infection incubated for 48 hrs by qPCR analysis; format: functional, organism-based; conditions: A549, 48 h
[14] = test system: A549; experiment: Cytotoxicity against human A549 cells by MTT assay; format: functional
[15] = Selectivity ratio of CC50 for human A549 cells to EC50 for Influenza A virus A/California/7/2009(H1N1) strain infected in A549 cells; format: toxicity, cell-based; conditions: read-out: Ratio CC50/EC50

CC[C@H]1OC(=O)[C@H](C)[C@@H](O[C@H]2C[C@@](C)(OC)[C@@H](O)[C@H](C)O2)[C@H](C)[C@@H](O[C@@H]2O[C@H](C)C[C@H](N(C)C)[C@H]2O)[C@](C)(O)C[C@@H](C)CN(C)[C@H](C)[C@@H](O)[C@]1(C)O [AZITHROMYCIN]
EC50 [1]: 2.12 µM
EC90 ([1]; 48.25 h, time 2895 min): 8.65 µM
CC50 [2]: > 40 µM
selectivity ratio [3]: > 19
EC50 [4]: 6.59 µM
CC50 at 40 h [5]: 810 µM
selectivity ratio [6]: 123
EC50 [7]: 3.71 µM
selectivity ratio [8]: 218
CC50 [9]: 810 µM
EC50 [10]: 5.1 µM
CC50 [11]: > 130 µM
selectivity ratio [12]: > 25
EC50 [13]: 68 µM
CC50 [14]: > 600 µM
selectivity ratio [15]: > 8.8

Source: ChEMBL document CHEMBL5244259, “Azithromycin: The First Broad-spectrum Therapeutic” (Eur J Med Chem, 2020)
